From US20110105496A1, “Methods For The Treatment Of Myosin Heavy Chain-Mediated Conditions Using 4,7-Dihydrothieno[2,3-B]Pyridine Compounds” (priority 2005, published 2011)
Like-named read-outs stand apart in the source and are kept apart here.

Test system: alpha-MyHC
Experiment: alpha-MyHC cytoblot process in neonatal rat ventricular myocytes (NRVM)
Type: cell-based
[1] = Table 2 (esters), NRVM, 72 hours, alpha-MyHC cytoblot
[2] = Table 2 (esters), NRVM, 72 hours, maximum of dose response fit
[3] = Table 4, NRVM, 72 hours, maximum of dose response fit

| Compound | EC50 [1] [µM] | Max Plateau [2] | other results |
| --- | --- | --- | --- |
| CCC1=C(C(=O)OC)C(c2cccc(Cl)c2F)c2c(sc(C(=O)c3ccc(Cl)c(Cl)c3)c2N)N1 (centres unmarked) [Compound 155] | 0.0193 | 224.86 per cent fraction of low control |  |
| CCC1=C(C(=O)OC)C(c2cccc(Cl)c2F)c2c(sc(C(=O)c3cccc([N+](=O)[O-])c3)c2N)N1 (centres unmarked) [Compound 156] | 0.00369 | 243.78 per cent fraction of low control |  |
| CCC1=C(C(=O)OC2CCCCC2)C(c2ccccc2)c2c(sc(C(=O)c3ccc(Cl)c(Cl)c3)c2N)N1 (centres unmarked) [Compound 160] | 0.0754 | 186.95 per cent fraction of low control |  |
| CCC1=C(C(=O)OCC(C)C)C(c2ccccc2)c2c(sc(C(=O)c3ccc(Cl)c(Cl)c3)c2N)N1 (centres unmarked) [Compound 161] | 0.0354 | 232.35 per cent fraction of low control |  |
| CCC1=C(C(=O)OC)C(c2ccccc2F)c2c(sc(C(=O)c3cccc(C#N)c3)c2N)N1 (centres unmarked) [Compound 164] | 0.00283 | 279.90 per cent fraction of low control |  |
| CCC1=C(C(=O)OC)C(c2ccccc2F)c2c(sc(C(=O)c3cccc(Cl)c3)c2N)N1 (centres unmarked) [Compound 167] | 111 | 255.95 per cent fraction of low control |  |
| CCOC(=O)C1=C(CC)Nc2sc(C(=O)c3ccc(Cl)c(Cl)c3)c(N)c2C1c1ccncc1F (centres unmarked) [Compound 168] | 0.00712 | 239.64 per cent fraction of low control |  |
| CCOC(=O)C1=C(CC)Nc2sc(C(=O)c3ccc(Cl)c(Cl)c3)c(N)c2C1c1ccncc1Cl (centres unmarked) [Compound 169] | 0.00495 | 261.04 per cent fraction of low control |  |
| CCC1=C(C(=O)OC)C(c2cc(F)cc(F)c2)c2c(sc(C(=O)c3ccc(F)c(F)c3)c2N)N1 (centres unmarked) [Compound 170] | 0.00189 | 262.16 per cent fraction of low control |  |
| CCC1=C(C(=O)OC)C(c2cc(F)cc(F)c2)c2c(sc(C(=O)c3ccc(Cl)c(Cl)c3)c2N)N1 (centres unmarked) [Compound 171] | 0.000828 | 296.79 per cent fraction of low control |  |
| CCC1=C(C(=O)OC)C(c2cc(F)cc(F)c2)c2c(sc(C(=O)c3ccccc3)c2N)N1 (centres unmarked) [Compound 172] | 0.000478 | 304.08 per cent fraction of low control |  |
| CCOC(=O)C1=C(CC)Nc2sc(C(=O)c3ccc(F)c(F)c3)c(N)c2C1c1ccncc1F (centres unmarked) [Compound 173] |  | 257.43 per cent fraction of low control |  |
| CCOC(=O)C1=C(CC)Nc2sc(C(=O)c3cccnc3)c(N)c2C1c1ccncc1F (centres unmarked) [Compound 174, 3-amino-6-ethyl-4-(3 fluoro-pyridin-4-yl)-2-(pyridine-3-carbonyl)-4,7 dihydro-thieno[2,3-b]pyridine-5-carboxylic acid ethyl ester] |  | 263.57 per cent fraction of low control |  |
| CCC1=C(C(=O)OCC(C)OC)C(c2ccccc2F)c2c(sc(C(=O)c3cccc(C#N)c3)c2N)N1 (centres unmarked) [Compound 180] | 0.0632 | 279.68 ± 65.32 per cent fraction of low control |  |
| CCC1=C(C(=O)OC(C)COC)C(c2ccccc2F)c2c(sc(C(=O)c3cccc(Cl)c3)c2N)N1 (centres unmarked) [Compound 181] | 0.021 | 240.80 ± 29.53 per cent fraction of low control |  |
| CCC1=C(C(=O)OC(C)COC)C(c2ccccc2F)c2c(sc(C(=O)c3cccc(C#N)c3)c2N)N1 (centres unmarked) [Compound 182] | 0.0609 | 251.54 ± 25.09 per cent fraction of low control |  |
| CCC1=C(C(=O)OCC(C)OC)C(c2ccccc2F)c2c(sc(C(=O)c3cccc(C#N)c3)c2N)N1 (centres unmarked) [Compound 185] | 1.71 | 172.89 ± 23.52 per cent fraction of low control |  |
| CCC1=C(C(=O)OC(C)COC)C(c2ccccc2F)c2c(sc(C(=O)c3cccc(C#N)c3)c2N)N1 (centres unmarked) [Compound 193] | 0.0776 | 230.28 ± 6.46 per cent fraction of low control |  |
| CCOC(=O)C1=C(C)Nc2sc(C(=O)c3cccc(Br)c3)c(N)c2C1(C)c1ccccc1 (centres unmarked) [Compound 197] |  |  | EC50 (Rattus norvegicus, Ventricular myocyte, Table 4, NRVM, 72 hours, alpha-MyHC cytoblot): 0.792 µM; Emax (Rattus norvegicus, Ventricular myocyte, Table 4, NRVM, 72 hours, maximum of dose response fit, read-out: Max Plateau): 160 ± 10.9% |
| CCOC(=O)C1=C(C)Nc2sc(C(=O)c3ccccc3)c(N)c2C1(C)c1ccccc1 (centres unmarked) [Compound 206] |  |  | Max Plateau [3]: 169.32 ± 23.07 per cent fraction of low control |
| CC(=O)C1=C(C)Nc2sc(C(=O)c3ccc(Cl)c(Cl)c3)c(N)c2C1(C)c1cccc(F)c1 (centres unmarked) [Compound 207, 1-[3-amino-2-(3,4 dichloro-benzoyl)-4-(3 fluoro-phenyl)-4,6-dimethyl-4,7 dihydro-thieno[2,3-b]pyridin-5-yl]-ethanone] |  |  | Max Plateau [3]: 148.73 ± 27.95 per cent fraction of low control |
| CC(=O)C1=C(C)N(C)c2sc(C(=O)c3ccccc3)c(N)c2C1c1ccccc1 (centres unmarked) [Compound 208, 1-(3-amino-2-benzoyl-6,7 dimethyl-4-phenyl-4,7 dihydro-thieno[2,3-b]pyridin-5-yl)-ethanone] |  |  | Max Plateau (Table 5 (R^4 substituted), NRVM, 72 hours, maximum of dose response fit): 173.33 per cent fraction of low control |
| CCC1=C(C(=O)OCCNC(=O)OC(C)(C)C)C(c2ccccc2F)c2c(sc(C(=O)c3ccc(Cl)c(Cl)c3)c2N)N1 (centres unmarked) [Compound 222, Bac protected 3-amino-2-(3,4 dichloro-benzoyl)-4-(2 fluoro-phenyl)-6-methyl-4,7 dihydro-thieno[2,3-b]pyridine-5-carboxylic acid 2-amino-ethyl ester] |  |  | EC50: 0.0943 µM; Max Plateau: 128.75 ± 8.38 |
